Test results as given in publication PMC7728344, “Pharmacokinetic Characterization of (Poly)phenolic Metabolites in Human Plasma and Urine after Acute and Short-Term Daily Consumption of Mango Pulp” (Molecules, 2020).
Read-outs that look alike come from different tables or passages of the source. Blank lines part the entries; values can stand above or below the compound they belong to.

How the values were obtained:
clinical = format: in vivo, human; parameters: AUC0–24h: concentration or dose not given beside the values
Procedure: SPE procedure was conducted to extract and concentrate the (poly)phenolic compounds and their metabolites from the plasma samples. Briefly, plasma samples were thawed on ice and 500 µL plasma was diluted with 1.5 mL of 0.1% formic acid in water with addition of internal standards (2-methylhippuric acid (2 ng/mL), phloridizin (1 ng/mL)) before being loaded on preconditioned SPE cartridges. The cartridges were washed with 0.1% formic acid in water (1 mL) after loading with plasma samples. The elution of the compounds was achieved by 0.1% formic acid in methanol (1 mL) and the eluent was dried under nitrogen gas at room temperature. […] Supernatant was collected in amber HPLC vials before analysis.
The absorption and elimination of 11 major mango metabolites over 24 h was determined after MP, MP + VC, and VC intake. The plasma concentration/area at each time point was determined by the mean of 13 subjects. The time vs. concentration curves and the time vs. area curves were created using GraphPad Prism (version 8.2.1). […] Tmax is the time (h) when Cmax was achieved. Wilcoxon signed-rank test was used for Tmax analysis due to non-normal distribution. Area under the plasma concentration time curve (AUC0−24h, nmol·h/L) was calculated by the linear trapezoidal method using Microsoft Excel 2013, version 15 [63]. […]

[1] = Concentration of (poly)phenolic metabolites in fasting urine at baseline, 24 h after single MP beverage and 15th day after 14-day MP intake (UHPLC-QQQ-MS); details: for Concentration in fasting urine, Mean ± std Error, 0 h (Fasting) / Concentration in fasting urine, Mean ± std Error, 15 Days (Fasting) / Concentration in fasting urine, Mean ± std Error, 24 h (Fasting): in vivo; for concentration at 15 day / concentration at 24 h / concentration at 0 h: human, urine, oral; for concentration at 24 h / concentration at 0 h: 500 g
From the text: The acute trial was a randomized, 3 arm, within-subject crossover study design (Figure 5A). The trial initiated with 3 days of food record collection to assess background (pre-study) dietary intake followed by counseling to adhere to a diet devoid of mango or its parts and relatively low in polyphenol-rich beverages/foods, which was maintained throughout the duration of the trial. […] In general, subjects were encouraged to follow their “usual” diet with the exception of foods/beverages that may interfere with the outcomes of the study. Food intake diaries and, phone call and email reminders helped subjects maintain compliance throughout the study period. After an initial 7-day run-in period on the limited polyphenol diet, subjects were assigned to a randomization sequence providing 1 of 3 study test beverages (recipes provided in Appendix A, Table A3) on three separate days in a random order: MP (500 g), MP (500 g) + VC (100 mg) or VC (100 mg) beverages. On each study day subjects arrived fasted and well hydrated. After standard admission procedures were completed (e.g., review of compliance with dietary requirements for 3 days prior to study day, dinner meal intake, usual sleep patterns), a catheter was placed by a registered nurse in subjects’ non-dominant arm and a fasting/baseline blood sample was collected (0 h). Subjects were provided with a standard breakfast meal 2 h after the study beverages. The breakfast meal was comprised of a buttermilk biscuit with butter and jelly, and scrambled egg white with shredded white cheddar cheese. After the 6 h blood collection, subjects ate a low polyphenol lunch consisting of dry roasted peanuts and fresh peeled cucumber with ranch dressing (Appendix A, Table A3).
Spot urine samples were collected in urine collection cups, immediately placed on ice and then aliquoted into individual cryovials. All the samples were stored at −80 °C until analysis.
A 14-day feeding trial was conducted with the MP only to study the effect of repetitive intake of MP on (poly)phenolic metabolite profiles. Upon completion of the acute trial, subjects were instructed to continue on the low polyphenolic diet for 2 weeks while consuming MP beverages (provided by CNRC) daily in the morning (250 g MP + 50 g water) and evening (250 g MP + 50 g water). On day 14, subjects consumed both beverages (500 g of MP in total) in the morning and reported to the CNRC on the 15th day after an overnight fast to provide a fasting blood and urine sample (Figure 5B). Blood and urine samples were collected as described above and stored at −80 °C until analysis.
The supernatant was collected and filtered through 0.2 µm polypropylene syringe filter before HPLC analysis.
The ESI conditions were the same as those used in the UHPLC-Q-TOF analysis. The quantification of the compounds was conducted by multiple-reaction monitoring (MRM) transitions. Spectra were recorded in both positive- and negative-ion mode with capillary voltage of 4500 V and drying gas flow rate of 9 L/min at 200 °C. The sheath gas temperature and flow rate were 300 °C and 11 L/min, respectively. Standards were optimized for collision energies, fragmentor voltages and MRM transitions using Mass Hunter Optimizer. The MRM transition for metabolites were created based on the results from UHPLC-Q-TOF-MS. Standards for plasma analysis were prepared in blank plasma (charcoal-stripped human plasma obtained from Bioreclamation IVT) for matrix match and for urine analysis were prepared in SMP.
The flow rate was maintained at 0.4 mL/min and the injection volume was 5 μL. The mobile phase consisted of acidified water (0.1% formic acid) (A) and acidified acetonitrile (0.1% formic acid) (B). The gradient for the separation of compounds was as follows: 5 to 5% B from 0 to 1 min; 10% B at 3 min; 15% B at 7 min; 15% B at 9 min; 20% B at 10 min; 20% B at 11 min; 25% B at 12 min; 30% B at 13 min; 30% B at 14 min; 95% B at 15 min; and back to 5% B at 16 min.

[2] = human plasma, 0−24 h, after VC (vitamin C 100 mg) beverage, mean ± standard error, read-out: Cmax
[3] = human plasma, after VC beverage, mean ± standard error

Compound: COc1cc(/C=C/C(=O)O)ccc1O [Ferulic acid]
- Concentration in fasting urine, Mean ± std Error, 0 h (Fasting) [1]: 0.5 ± 0.1 µM
- Concentration in fasting urine, Mean ± std Error, 15 Days (Fasting) [1]: 0.4 ± 0.1 µM
- Concentration in fasting urine, Mean ± std Error, 24 h (Fasting) [1]: 0.4 ± 0.1 µM

Compound: O=C(O)CNC(=O)c1ccccc1 [Hippuric acid]
- concentration at 15 day [1]: 2020 ± 242 µM
- concentration at 24 h [1]: 3710 ± 582 µM

Compound: COC(=O)CNC(=O)c1ccccc1 [Methyl hippurate]
- Concentration in fasting urine, Mean ± std Error, 0 h (Fasting) [1]: 2.8 ± 2.3 µM
- Concentration in fasting urine, Mean ± std Error, 15 Days (Fasting) [1]: 6.3 ± 1.7 µM
- Concentration in fasting urine, Mean ± std Error, 24 h (Fasting) [1]: 7.8 ± 2.1 µM

Compound: COc1cc(C(=O)O)cc(OC)c1O [Syringic acid]
- concentration at 15 day [1]: 1.7 ± 0.2 µM
- concentration at 0 h [1]: 3.6 ± 0.4 µM
- concentration at 24 h [1]: 5.9 ± 0.8 µM

Compound: COc1cc(C(=O)O)ccc1O [Vanillic acid]
- concentration at 15 day [1]: 4.1 ± 1 µM
- concentration at 0 h [1]: 4.9 ± 0.9 µM
- concentration at 24 h [1]: 4.4 ± 0.7 µM

Compound: O=C(O)/C=C/c1cccc(O)c1 [m-Coumaric acid]
- Concentration in fasting urine, Mean ± std Error, 0 h (Fasting) [1]: 0.8 ± 0.1 µM
- Concentration in fasting urine, Mean ± std Error, 15 Days (Fasting) [1]: 0.7 ± 0.1 µM
- Concentration in fasting urine, Mean ± std Error, 24 h (Fasting) [1]: 0.7 ± 0.1 µM

Compound: O=C(O)/C=C/c1ccccc1O [o-Coumaric acid]
- concentration at 15 day [1]: 0.5 ± 0.1 µM
- concentration at 0 h [1]: 0.9 ± 0.1 µM
- concentration at 24 h [1]: 0.9 µM

Compound: O=C(O)C=Cc1ccc(O)cc1 [p-Coumaric acid]
- concentration at 15 day [1]: 0.3 µM
- concentration at 0 h [1]: 0.5 ± 0.1 µM
- concentration at 24 h [1]: 0.4 ± 0.1 µM

The next lines start with the values.

- time within which cleared from the bloodstream (clinical; after mango intake): 6 to 8 h
- content in plasma (as observed from areas) after MP and MP + VC vs. VC beverage alone (clinical; area vs. time profile 0−24 h): significantly higher
- plasma concentration relative to limit of quantitation (clinical; human plasma after test beverages intake): below the LOQ
- Tmax (clinical; human, plasma, oral, 500 g, after mango intake, read-out: time to reach maximum concentration/area in plasma): 1 to 2 h
- difference in plasma concentrations/areas after MP + VC beverage compared to MP beverage alone (clinical; increase observed, statistical outcome): not statistically significant
Compound: O=c1c2cc(O)c(O)cc2oc2cc(O)c([C@@H]3O[C@H](CO)[C@@H](O)[C@H](O)[C@H]3O)c(O)c12 [Compound C11, mangiferin]

- Cmax (clinical; [2]): 0.0048 ± 0.0007 µM
- AUC0–24h (clinical; [3]): 0.0259 ± 0.0019 µM·h
- AUC0–24h (clinical; human, in vivo): 0.1611 ± 0.0136 µM·h
- Cmax (clinical; human, in vivo): 0.0545 ± 0.0049 µM
- Tmax (clinical; human, in vivo): 2.2 ± 0.3 h
- difference in plasma concentrations/areas after MP + VC beverage compared to MP beverage alone (clinical; in vivo): not statistically significant
Compound: methylgallic acid [Compound C3]

- Cmax (clinical; [2]): 0.0063 ± 0.0016 µM
- AUC0–24h (clinical; [3]): 0.0247 ± 0.003 µM·h
- AUC0–24h (clinical; human, in vivo): 1.6558 ± 0.274 µM·h
- Cmax (clinical; human, in vivo): 0.824 ± 0.131 µM
- Tmax (clinical; human, in vivo): 2.2 ± 0.2 h
- difference in plasma concentrations/areas after MP + VC beverage compared to MP beverage alone (clinical; in vivo): not statistically significant
Compound: methylgallic acid sulfate [Compound C4]

- Tmax (clinical; [3]): 8.0 ± 2.3 h
Compound: methylpyrogallol glucuronide [Compound C9]

- Cmax (clinical; [2]): 0.0358 ± 0.0095 µM
- AUC0–24h (clinical; [3]): 0.1295 ± 0.036 µM·h
Compound: methylpyrogallol sulfate isomer 1 [Compound C6]

- Cmax (clinical; [2]): 0.0766 ± 0.0249 µM
- AUC0–24h (clinical; [3]): 0.2166 ± 0.0545 µM·h
Compound: methylpyrogallol sulfate isomer 2 [Compound C7]
